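Following 48 hours of exposure in 96-well plates, responses at five concentrations were used to interpolate endpoints linearly. GI50 is the concentration that inhibits growth by half. The concentration for full growth arrest is given as TGI.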
Columns and labels:
Assay in all cases: NCI tumour cell line growth inhibition, 48 h
LOX IMVI melanoma = tested on: LOX IMVI melanoma
HCC-2998 colon = tested on: HCC-2998 colon
SNB-75 CNS = tested on: SNB-75 CNS
SW-620 colon = tested on: SW-620 colon
UACC-62 melanoma = tested on: UACC-62 melanoma
SR leukemia = tested on: SR leukemia
NCI-H23 lung = tested on: NCI-H23 lung
ACHN renal = tested on: ACHN renal
SNB-19 CNS = tested on: SNB-19 CNS
HS 578T breast = tested on: HS 578T breast
NCI-H522 lung = tested on: NCI-H522 lung
U251 CNS = tested on: U251 CNS
UO-31 renal = tested on: UO-31 renal

Compound	TGI (LOX IMVI melanoma) [µM]	TGI (HCC-2998 colon) [µM]	TGI (SNB-75 CNS) [µM]	TGI (SW-620 colon) [µM]	TGI (UACC-62 melanoma) [µM]	TGI (SR leukemia) [µM]	TGI (NCI-H23 lung) [µM]	TGI (ACHN renal) [µM]	TGI (SNB-19 CNS) [µM]	TGI (HS 578T breast) [µM]	TGI (NCI-H522 lung) [µM]	TGI (U251 CNS) [µM]	TGI (UO-31 renal) [µM]	GI50 (SR leukemia) [µM]
CC[C@@H](/C=C\CCC1(C[C@H](O)CCC=C(C)C)OCCO1)O[Si](C(C)C)(C(C)C)C(C)C	38.8	31.9	64.9	73.9	64.5	51.3	61.8	33.6	33.8	80.5	39.2	31.1	34.3	
CSC1=C(c2ccc(Cl)cc2)SC(N2CCCCC2)N1c1ccc([N+](=O)[O-])cc1 (configuration not stated)	> 100	> 100	96.2	> 100	> 100	> 100	85.2	> 100	> 100	> 100	63.3	56.4	> 100	
CSc1ccc(/C=C2\N=C(c3ccccc3)N(c3nc4ccc(Sc5ccccc5)cc4[nH]3)C2=O)cc1	41.6	38.2	45.6	52.5	39.1	> 87.5	> 94.5	> 100	> 89.2	58.1	39.9	41.3	68.5	13.7
COc1ccc(N=C(Nc2ccc(OC)cc2)C(=Nc2ccc(OC)cc2)Nc2ccc(OC)cc2)cc1	> 100	> 100	8.01	> 100	> 100	> 100	> 100	> 100	> 100	> 100	> 100	> 100	> 100	
O=C(N/N=C\c1ccc2ccccc2c1)Nc1ccc([N+](=O)[O-])cc1	> 100	> 63.3	> 100	> 100	> 74.8	> 100	> 72.3	> 63.8	> 100	> 100	> 66.8	> 100	> 59.3	
Clc1ccc(C2NN=C3c4ccccc4OCC32)cc1 (configuration not stated)	27.6	13.5	> 100	> 25.3	> 47.2	5.67	51	> 100	> 100	14.6	3.63	> 56.8	41.4	
Cc1cccc(NC(=S)N=Nc2c(O)[nH]c3ccccc23)c1	> 100	> 100	> 100	> 100	> 100	> 100	> 100	> 100	> 100	> 100	> 100	> 100	> 100	
